In patent publication US20180021460A1, “PROBES AND METHODS FOR DETECTING AMYLOIDOGENIC PROTEINS” (Academia Sinica, priority 2016, published 2018):
Non-standard residues stand in square brackets, D forms with d. No end group written: not given here. o‑nitrobenzyl photocleavable linker = o-nitrobenzyl photocleavable moiety placed between the 8R peptide and the amyloidogenic sequence; Alexa568 = Alexa568 fluorophore linked to the cysteine residue

What was measured:
TDP-43 and importin-α1 = assay: Localization of endogenous TDP-43 and importin-α1 in JHR2-treated cells; type: cell-based
[1] = system: Ran (RAS-related nuclear protein); assay: Localization of endogenous Ran in JHR2-treated cells; type: cell-based
Method: (§1) Mouse neuroblastoma N2A cells (generous gift from Dr. Yijuang Chern, IBMS, Academia Sinica) were cultured in Dulbecco's modified Eagle's medium (DMEM) (Invitrogen) supplemented with 2 mM glutamine, 10% heat-inactivated fetal bovine serum and 100 U/mL penicillin-streptomycin (Invitrogen) at 37° C. in a humidified atmosphere with 5% CO2. Before peptide incubation, cells were treated with 5-aminoimidazole-4-carboxamide-1-β-D-ribofuranoside (AICAR) to induce the cytoplasmic mislocalization of TDP-43. JHR2 was prepared by dissolving the lyophilized powder in the cell culture medium. Cells were incubated with polypeptide-containing medium for 3 hr, washed, and UV-illuminated (mercury lamp with 345-385 nm bandpass filter, average power: 8.24 mW/cm^2).
(§2) For EGFP-TDP-43 expression, 2×10^5 of N2A cells in a 30-mm square coverslip were transfected with 1 μg of full-length TDP-43-EGFP plasmid with TurboFect Transfection Reagent (Thermo Scientific) according to the manufacturer's protocol. After peptide and photolysis treatment as described above, cells were incubated for an additional 24 hr and then fixed with 4 paraformaldehyde. Confocal images were captured with LSM 880 and super resolution imaging was performed with Airy Scan (Zeiss, Germany). For immunostaining, anti-TDP-43 antibody (Abcam, ab104223) and anti-Ran (Abcam, ab155103) antibody were used, respectively.

EGFP-TDP-43 in N2A cells [2] = assay: Microinjection of probe into N2A cells and irradiation; type: cell-based, mouse; conditions: N2A cells microinjected, data not shown
Description: The glass microneedles for microinjection (1B100-F4, World Precision Instruments, USA) were pulled with a PC-10 capillary puller (Narishige, Japan). […] A Picospriterzer III microinjection system and a joystick micromanipulator (Narishige, Japan) mounted with a stage-side of a microscope (IX-71, Olympus, Japan) were used for delivering the peptide solution into the cytosol of N2A cells. After microinjection (injection pressure, 80 hPa; injection time, 100 msec; compensation pressure, 20 hPa), cells were subsequently rinsed with 2 mL of L-15 medium supplemented with 10% FBS for 1 hr of recovery.

EGFP-TDP-43 in N2A cells [3] = assay: EGFP-TDP-43 aggregation / co-localization in JHR2-treated N2A cells (confocal); type: cell-based, mouse
Method: (§3) Cell Maintenance, Peptide Treatment, and Photolysis
as §1
Confocal and Super-Resolution Fluorescence Microscopy with Airy Scan
as §2, with “For immunostaining, anti-TDP-43 antibody (Abcam, ab104223) and anti-Ran (Abcam, ab155103) antibody were used, respectively.” left out

[4] = system: endogenous TDP-43 in N2A cells; assay: Endogenous TDP-43 aggregates in N2A cells (immunostaining, high content analysis); type: cell-based, mouse; conditions: pinhole-confined UV light spot, 24 hr incubation
Method: as §3, §1
as §2, with “For immunostaining, anti-TDP-43 antibody (Abcam, ab104223) and anti-Ran (Abcam, ab155103) antibody were used, respectively.” left out

EGFP-TDP-43 in N2A cells [5] = assay: Time-lapse living cell fluorescence microscopy and Annexin V staining; type: cell-based, mouse
Method: Time-lapse Living Fluorescence Cell Microscopy and Annexin V Staining
N2A cells (5×10^4) were transfected with 1 μg of full-length TDP-43-EGFP in a sterilized 35 mm μ-Dish (Ibidi, Martinsried, Germany). The living cells were imaged with a Nikon TiE inverted microscope equipped with a Tokai-hit constant humidity chamber (37° C., 5% CO2) for 25 hr. Hoechst, EGFP, Aleax Fluor 568 and Cy5 cube filters were used to collect the fluorescence emission accordingly. Cellular images were captured with an Andor iXon3 888 back-illuminated high sensitivity EMCCD camera. Images were analyzed and quantified using Nikon NIS element software. After 24 hr of peptide treatment, the cells were washed twice with PBS, washed once with 1× Annexin V binding buffer, incubated with Annexin V-Cy5 (BioVision, USA) at room temperature and imaged.

[6] = Transmission electron microscopy (vesicle size, fibril formation); type: physicochemical; conditions: upon illumination 335-379 nm, 8.24 mW/cm^2, 3 mins
Method: Transmission Electron Microscopy
The resulting aliquots of peptide solutions (5 μL) were applied on glow-charged 300 mesh formvar- and carbon-coated copper grids stained with 1% uranyl acetate. After drying overnight, all samples were analyzed using a JEM-2011 electron microscope (JEOL, Japan).

JHR2: Same peptide probe as JHR1 with Alexa568 fluorophore linked to the cysteine residue instead of tert-butyl thiol (RRRRRRRR[o‑nitrobenzyl photocleavable linker]MGGGMNFGAFSINPAMC(Alexa568)-NH2)
TDP-43 and importin-α1 localization under photoactivation (TDP-43 and importin-α1; +JHR2+Light): translocated from the nucleus to cytosol and formed aggregates | importin-α1 localization, probe-treated only (no light) (TDP-43 and importin-α1; +JHR2−Light): mainly remained in the nucleus | Ran protein miss-localized into the cytoplasm ([1]; +JHR2+Light): > 90% | Ran localization, probe-treated only (no light) ([1]; +JHR2−Light): mainly resided in the nucleus | onset of EGFP-TDP43 aggregation after microinjection and irradiation (EGFP-TDP-43 in N2A cells [2]): 4 h | onset of clustering of JHR2 after microinjection and irradiation (EGFP-TDP-43 in N2A cells [2]): 2 h | aggregates of JHR2 and EGFP-TDP-43 after irradiation (EGFP-TDP-43 in N2A cells [3]; AICAR pretreated, 24 hrs after non-focused light 335-379 nm, 8.24 mW/cm^2, 3 mins): developed pronounced aggregates and/or inclusion bodies that were largely co-localized in the cytosol | cell penetration (EGFP-TDP-43 in N2A cells [3]; JHR2 1 μM, 3 hr): may quickly penetrate cells | seeding of endogenous TDP-43 cytosolic aggregation within confined illuminated area [4]: selectively induced the JHR2 amyloid to “seed” endogenous TDP-43 cytosolic aggregation | time at which EGFP-TDP-43 puncta became detectable (EGFP-TDP-43 in N2A cells [5]; N2A cells expressing EGFP-TDP-43, with JHR2, after illumination): Twenty hours after illumination, the EGFP-TDP-43 puncta became detectable | apoptosis by Annexin V staining (EGFP-TDP-43 in N2A cells [5]; N2A cells with EGFP-TDP-43 inclusion bodies, end of time course 25 hr): on the verge of apoptosis | time to detection of massive fibrils (TEM) [6]: ≤ 4 h
